Consider 2 molecules from patent US20190119284A1, “ErbB Inhibitors and Uses Thereof” (The Regents of the University of California, priority 2016, published 2019).

As a reminder, the inhibition is the relative decrease from the control value, in per cent.

For one test, the target named is T1, HER2 kinase domain (Homo sapiens, UniProt P04626).
T1 construct: In vitro kinase assays with the HER2 kinase domain (SignalChem) were performed in triplicate; purchased SignalChem
Briefly: In vitro HER2 Kinase Assay. In kind it is biochemical. As to conditions: 50 μM ATP. How it is done:
In vitro HER2 Kinase Assay. In vitro kinase assays with the HER2 kinase domain (SignalChem) were performed in triplicate as follows. To 9 μL of a 2.5× solution of kinase and substrate in reaction buffer was added 3 μL of a 5× DMSO or inhibitor dilution in 10% DMSO:water. The inhibitor/kinase solution was incubated at room temperature for 10 minutes. The kinase assay was initiated by the addition of 3 μL of a 5× solution of ATP, and ran for 15 minutes. The final reaction conditions were 50 mM Tris (pH7.4), 5 mM MnCl2, 0.01% Tween-20, 2 mM DTT, 100 μM E4Y substrate (SignalChem), 15 nM HER2, 2% DMSO, 50 μM ATP, and 1 μCi γ^32P-ATP. After 15 minutes, 3 μL of each reaction was pipetted onto phosphocellulose sheets (P81, Whatman) and allowed to dry. The sheets were then washed 4×5 min with a solution of 0.5% phosphoric acid, dried, and exposed to a phosphor screen overnight. Phosphorimaging was conducted on a Typhoon 9500, image intensities were quantified in ImageQuant 5.2, normalized to the DMSO control and plotted in GraphPad Prism 6.

The target in a further test is P70S6K1 (Homo sapiens, UniProt P23443). Briefly: Nanosyn in vitro kinase profiling: P70S6K1. In kind it is biochemical. How it is done: (§1) This was confirmed by in vitro profiling against a panel of kinases, with compound 2 only showing potent inhibition of EGFR and Ab1 (Table 2).
P70S6K1, sequence (P23443 whole entry, species assumed): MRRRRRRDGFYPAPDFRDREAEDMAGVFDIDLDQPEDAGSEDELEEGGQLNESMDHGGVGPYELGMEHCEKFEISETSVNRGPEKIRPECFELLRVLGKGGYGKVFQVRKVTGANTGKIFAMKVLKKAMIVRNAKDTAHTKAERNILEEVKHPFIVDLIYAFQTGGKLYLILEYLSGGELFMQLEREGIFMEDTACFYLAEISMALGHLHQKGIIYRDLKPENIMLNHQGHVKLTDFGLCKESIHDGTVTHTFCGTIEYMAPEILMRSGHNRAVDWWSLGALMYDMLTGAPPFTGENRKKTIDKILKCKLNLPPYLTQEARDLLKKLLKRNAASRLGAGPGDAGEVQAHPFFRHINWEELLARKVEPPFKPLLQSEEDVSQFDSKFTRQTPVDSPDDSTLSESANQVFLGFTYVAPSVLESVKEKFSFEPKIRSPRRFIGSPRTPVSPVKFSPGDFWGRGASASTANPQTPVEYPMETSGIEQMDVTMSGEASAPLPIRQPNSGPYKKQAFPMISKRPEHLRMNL
(§2) In vitro Kinome Screen. In vitro profiling of compound 2 at 100 nM was conducted by Nanosyn.

In another test the target is PYK2 (Homo sapiens, UniProt Q14289). The experiment in a line: Nanosyn in vitro kinase profiling: PYK2. Conditions: for inhibition at 1 µM: compound at 1 μM. In kind it is biochemical. The procedure:
as §1, §2

In the next test the target is T2, IKK-BETA (Homo sapiens, UniProt O14920).
T2 sequence (O14920 1-756): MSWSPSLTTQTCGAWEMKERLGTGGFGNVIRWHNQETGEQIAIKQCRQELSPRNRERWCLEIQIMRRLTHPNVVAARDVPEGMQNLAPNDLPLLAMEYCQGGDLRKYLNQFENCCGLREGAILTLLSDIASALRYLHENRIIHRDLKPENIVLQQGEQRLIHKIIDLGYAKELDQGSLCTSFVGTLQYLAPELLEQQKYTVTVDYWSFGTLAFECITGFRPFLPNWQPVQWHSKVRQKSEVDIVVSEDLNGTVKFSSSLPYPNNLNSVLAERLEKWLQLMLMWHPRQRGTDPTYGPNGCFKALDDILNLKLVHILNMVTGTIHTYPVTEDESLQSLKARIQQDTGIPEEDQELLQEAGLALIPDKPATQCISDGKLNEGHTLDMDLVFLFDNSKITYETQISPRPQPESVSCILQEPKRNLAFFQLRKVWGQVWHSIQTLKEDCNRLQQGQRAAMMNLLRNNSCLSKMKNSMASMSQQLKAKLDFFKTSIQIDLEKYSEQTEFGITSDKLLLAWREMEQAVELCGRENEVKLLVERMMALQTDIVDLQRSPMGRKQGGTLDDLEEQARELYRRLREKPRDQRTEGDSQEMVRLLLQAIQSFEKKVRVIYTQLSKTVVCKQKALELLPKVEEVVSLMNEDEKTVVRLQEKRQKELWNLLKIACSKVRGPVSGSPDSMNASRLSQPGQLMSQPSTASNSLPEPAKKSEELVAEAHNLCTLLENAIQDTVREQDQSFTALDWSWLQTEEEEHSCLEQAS
Briefly: Nanosyn in vitro kinase profiling: IKK-BETA. In kind it is biochemical. As to conditions: for inhibition at 1 µM: compound at 1 μM. The procedure:
as §1, §2

In the next test the target is MAPKAPK-2 (Homo sapiens, UniProt P49137). The experiment in a line: Nanosyn in vitro kinase profiling: MAPKAPK-2. In kind it is biochemical. As to conditions: for inhibition at 1 µM: compound at 1 μM. How it is done:
as §1, §2

The target in test [1] is T3, 2YF-VC/3wt + NRG Ba/F3 cells (Homo sapiens, UniProt P04626, DELINS776-776VC/Y1005F/Y1023F/Y1112F/Y1127F/Y1139F/Y1196F/Y1221F/Y1222F/Y1248F, cells depend on it).
T3 construct: reported HER2 oncogenic mutants in the HER2YF construct
T3 sequence (P04626 with tags, fused parts or gaps with the stated changes): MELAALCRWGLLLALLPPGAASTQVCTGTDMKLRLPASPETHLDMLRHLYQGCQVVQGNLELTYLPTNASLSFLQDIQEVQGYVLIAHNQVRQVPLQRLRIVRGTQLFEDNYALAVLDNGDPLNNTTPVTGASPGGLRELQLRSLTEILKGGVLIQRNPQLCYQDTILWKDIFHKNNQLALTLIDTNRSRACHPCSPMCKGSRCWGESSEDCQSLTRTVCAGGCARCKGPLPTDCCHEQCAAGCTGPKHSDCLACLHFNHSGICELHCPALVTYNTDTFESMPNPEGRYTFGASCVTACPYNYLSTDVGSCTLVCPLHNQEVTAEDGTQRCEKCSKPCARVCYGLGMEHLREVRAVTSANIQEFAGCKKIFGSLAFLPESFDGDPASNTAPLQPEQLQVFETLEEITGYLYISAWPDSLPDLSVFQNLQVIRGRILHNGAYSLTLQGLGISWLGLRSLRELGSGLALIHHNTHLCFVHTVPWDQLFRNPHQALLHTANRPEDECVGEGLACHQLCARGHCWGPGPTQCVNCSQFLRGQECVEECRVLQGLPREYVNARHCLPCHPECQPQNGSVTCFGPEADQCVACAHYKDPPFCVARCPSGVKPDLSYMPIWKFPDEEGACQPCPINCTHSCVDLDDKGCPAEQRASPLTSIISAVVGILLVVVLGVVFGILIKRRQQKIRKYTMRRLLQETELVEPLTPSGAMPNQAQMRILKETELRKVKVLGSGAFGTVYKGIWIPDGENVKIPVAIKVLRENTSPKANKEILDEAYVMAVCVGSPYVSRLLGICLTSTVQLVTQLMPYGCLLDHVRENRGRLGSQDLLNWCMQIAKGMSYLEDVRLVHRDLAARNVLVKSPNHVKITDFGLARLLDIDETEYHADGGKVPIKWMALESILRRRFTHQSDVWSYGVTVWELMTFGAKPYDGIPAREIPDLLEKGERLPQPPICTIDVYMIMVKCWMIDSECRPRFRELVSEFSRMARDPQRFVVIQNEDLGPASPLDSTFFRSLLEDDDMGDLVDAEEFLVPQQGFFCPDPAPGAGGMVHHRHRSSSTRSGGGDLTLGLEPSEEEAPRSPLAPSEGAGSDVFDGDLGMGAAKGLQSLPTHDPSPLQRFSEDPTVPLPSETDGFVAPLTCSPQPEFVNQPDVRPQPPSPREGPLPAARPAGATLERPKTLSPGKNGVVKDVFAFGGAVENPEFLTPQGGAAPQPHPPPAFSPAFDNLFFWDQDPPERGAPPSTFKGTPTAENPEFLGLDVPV
The experiment in a line: Ba/F3 proliferation assay, 2YF-VC/3wt + NRG. In kind it is cell-based. Conditions: Table 4; ± S.D., n = 2; read-out: IC50, 2YF-VC/3wt + NRG. How it is done: For the 2YF/3wt cells, the parental cells were first transduced with HER3 according to the protocol above and were then spun down at 500×g for 5 min and re-suspended in media supplemented with 10 ng/mL IL-3 and 3 μg/mL puromycin (Invitrogen). Cells were maintained in these conditions for seven days, passaging as required. After seven days the cells were spun down, washed with fresh media, and then used for a subsequent round of transduction according to the protocol above with HER2YF virus. […] The cells were maintained in these conditions for seven days, passaging as required. After seven days the cells were spun down, washed with fresh media, and then suspended in media supplemented with 10 ng/mL of NRG. Cells were maintained in these conditions for seven days to select for a NRG dependent population of 2YF/3wt Ba/F3 cells that were then maintained as described above. The same protocol was used for the 2YF-L755S/3wt, 2YF-YVMA/3wt, and 2YF-VC/3wt cell lines using the indicated constructs.
Proliferation Assays. […] The following day media was changed to fresh media that contained either DMSO or the indicated concentration of drug plus NRG (50 ng/mL final concentration) as indicated. […] For all normalized assays, proliferation was normalized to the DMSO control condition. […]

In the next test the target is MEK2 (Homo sapiens, UniProt P36507). The experiment in a line: Nanosyn in vitro kinase profiling: MEK2. In kind it is biochemical. Conditions: compound at 1 μM.
MEK2, sequence (P36507 whole entry, species assumed): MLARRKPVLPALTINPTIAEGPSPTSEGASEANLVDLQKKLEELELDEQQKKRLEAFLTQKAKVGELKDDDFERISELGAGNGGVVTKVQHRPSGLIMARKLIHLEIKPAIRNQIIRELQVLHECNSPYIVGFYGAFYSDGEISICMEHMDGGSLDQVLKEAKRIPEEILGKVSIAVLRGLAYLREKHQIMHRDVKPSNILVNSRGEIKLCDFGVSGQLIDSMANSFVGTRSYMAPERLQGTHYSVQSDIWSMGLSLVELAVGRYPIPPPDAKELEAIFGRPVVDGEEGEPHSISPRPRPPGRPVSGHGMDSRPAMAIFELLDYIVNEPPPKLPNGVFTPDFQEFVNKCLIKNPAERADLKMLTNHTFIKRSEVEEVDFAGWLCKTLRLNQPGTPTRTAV
In a further test the target is TYK2 (Homo sapiens, UniProt P29597). The experiment in a line: Nanosyn in vitro kinase profiling: TYK2. In kind it is biochemical. Conditions: compound at 1 μM.
TYK2, sequence (P29597 whole entry, species assumed): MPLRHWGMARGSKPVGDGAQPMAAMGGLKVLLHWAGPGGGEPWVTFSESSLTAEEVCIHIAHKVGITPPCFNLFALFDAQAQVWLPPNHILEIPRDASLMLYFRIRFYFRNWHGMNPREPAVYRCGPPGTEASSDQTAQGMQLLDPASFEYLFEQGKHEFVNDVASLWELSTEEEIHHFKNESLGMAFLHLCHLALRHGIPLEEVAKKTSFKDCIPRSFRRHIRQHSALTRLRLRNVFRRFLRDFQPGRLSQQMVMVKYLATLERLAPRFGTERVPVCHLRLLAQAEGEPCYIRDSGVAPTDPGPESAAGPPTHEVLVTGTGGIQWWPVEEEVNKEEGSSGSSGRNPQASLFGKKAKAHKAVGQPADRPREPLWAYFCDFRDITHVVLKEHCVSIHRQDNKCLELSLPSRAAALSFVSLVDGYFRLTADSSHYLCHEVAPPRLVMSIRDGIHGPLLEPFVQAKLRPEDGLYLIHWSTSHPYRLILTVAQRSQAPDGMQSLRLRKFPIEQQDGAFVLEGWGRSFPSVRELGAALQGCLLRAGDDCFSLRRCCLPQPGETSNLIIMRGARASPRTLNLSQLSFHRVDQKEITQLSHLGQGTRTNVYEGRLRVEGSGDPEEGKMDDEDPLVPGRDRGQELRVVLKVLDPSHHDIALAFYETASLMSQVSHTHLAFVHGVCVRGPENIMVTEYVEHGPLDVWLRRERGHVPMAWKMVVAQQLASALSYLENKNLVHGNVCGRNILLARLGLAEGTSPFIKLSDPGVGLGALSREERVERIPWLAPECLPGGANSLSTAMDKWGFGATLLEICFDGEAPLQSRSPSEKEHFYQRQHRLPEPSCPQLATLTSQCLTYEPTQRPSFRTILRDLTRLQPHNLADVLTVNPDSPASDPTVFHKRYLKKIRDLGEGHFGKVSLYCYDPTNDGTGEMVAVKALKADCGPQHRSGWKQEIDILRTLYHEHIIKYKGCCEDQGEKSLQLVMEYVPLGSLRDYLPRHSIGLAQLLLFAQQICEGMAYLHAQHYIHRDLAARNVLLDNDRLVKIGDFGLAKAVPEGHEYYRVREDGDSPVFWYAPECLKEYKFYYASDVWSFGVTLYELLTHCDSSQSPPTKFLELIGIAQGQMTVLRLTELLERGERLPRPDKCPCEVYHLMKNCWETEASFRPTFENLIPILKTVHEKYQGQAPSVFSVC
The next test deals with PI3K-ALPHA (Homo sapiens, UniProt P42336). The experiment in a line: Nanosyn in vitro kinase profiling: PI3K-ALPHA. In kind it is biochemical. Conditions: compound at 1 μM.
In a further test the target is FAK (Homo sapiens, UniProt Q05397). Briefly: Nanosyn in vitro kinase profiling: FAK. In kind it is biochemical. As to conditions: compound at 1 μM.

MAPKAPK-2, sequence (P49137 whole entry, species assumed): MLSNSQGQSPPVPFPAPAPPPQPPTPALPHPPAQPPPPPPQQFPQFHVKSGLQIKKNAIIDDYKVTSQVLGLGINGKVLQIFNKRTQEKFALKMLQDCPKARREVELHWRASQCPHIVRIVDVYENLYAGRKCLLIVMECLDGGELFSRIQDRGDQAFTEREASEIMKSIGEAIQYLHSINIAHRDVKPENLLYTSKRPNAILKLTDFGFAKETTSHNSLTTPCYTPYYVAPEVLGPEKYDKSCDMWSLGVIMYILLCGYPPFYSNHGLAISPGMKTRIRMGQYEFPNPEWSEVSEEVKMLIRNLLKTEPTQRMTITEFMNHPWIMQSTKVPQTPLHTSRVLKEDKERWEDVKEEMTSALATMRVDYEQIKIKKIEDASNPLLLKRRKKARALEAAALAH
PYK2, sequence (Q14289 whole entry, species assumed): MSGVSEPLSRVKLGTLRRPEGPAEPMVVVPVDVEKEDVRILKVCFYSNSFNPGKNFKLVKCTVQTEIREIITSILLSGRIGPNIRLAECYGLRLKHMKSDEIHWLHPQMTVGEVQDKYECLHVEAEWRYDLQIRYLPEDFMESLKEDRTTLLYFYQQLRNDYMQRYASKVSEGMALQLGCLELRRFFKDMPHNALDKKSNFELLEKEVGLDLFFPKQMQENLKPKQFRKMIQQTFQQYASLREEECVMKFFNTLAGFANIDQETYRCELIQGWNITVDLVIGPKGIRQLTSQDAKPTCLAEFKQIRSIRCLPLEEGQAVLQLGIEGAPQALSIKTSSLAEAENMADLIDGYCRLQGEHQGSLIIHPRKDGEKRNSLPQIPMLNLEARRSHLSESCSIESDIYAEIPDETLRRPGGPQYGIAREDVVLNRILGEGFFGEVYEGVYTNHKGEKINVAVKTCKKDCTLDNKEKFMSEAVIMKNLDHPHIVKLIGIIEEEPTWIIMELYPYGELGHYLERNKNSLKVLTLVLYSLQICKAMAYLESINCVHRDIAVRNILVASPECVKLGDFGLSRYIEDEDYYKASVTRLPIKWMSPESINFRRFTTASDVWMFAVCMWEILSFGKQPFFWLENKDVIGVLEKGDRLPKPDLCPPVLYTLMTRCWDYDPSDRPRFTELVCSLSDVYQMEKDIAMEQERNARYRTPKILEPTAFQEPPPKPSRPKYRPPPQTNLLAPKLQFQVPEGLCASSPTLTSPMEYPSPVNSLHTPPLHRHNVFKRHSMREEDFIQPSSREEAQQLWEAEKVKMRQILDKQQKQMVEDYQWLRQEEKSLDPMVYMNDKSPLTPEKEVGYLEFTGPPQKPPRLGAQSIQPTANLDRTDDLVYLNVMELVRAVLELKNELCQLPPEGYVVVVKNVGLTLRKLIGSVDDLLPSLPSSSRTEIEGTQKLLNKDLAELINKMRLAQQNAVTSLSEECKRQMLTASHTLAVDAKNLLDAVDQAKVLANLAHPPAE
T1 sequence (P04626 720-987 limits assumed): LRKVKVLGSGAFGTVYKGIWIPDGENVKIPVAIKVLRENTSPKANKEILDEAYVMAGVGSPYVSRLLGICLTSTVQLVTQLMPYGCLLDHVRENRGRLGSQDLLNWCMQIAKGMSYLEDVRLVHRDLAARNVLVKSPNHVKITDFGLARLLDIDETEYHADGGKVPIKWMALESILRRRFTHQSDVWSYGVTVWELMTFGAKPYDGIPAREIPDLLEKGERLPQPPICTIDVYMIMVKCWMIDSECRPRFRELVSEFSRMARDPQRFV

As for `COc1ccc(-c2ccco2)cc1Nc1ncnc2[nH]nc(-c3ccco3)c12` [compound 2, 3-(furan-2-yl)-N-(5-(furan-2-yl)-2-methoxyphenyl)-1H-pyrazolo[3,4-d]pyrimidin-4-amine], at HER2 kinase domain, the “potency against HER2 in vitro” value was “equipotent to lapatinib”. The inhibition at 0.1 µM at P70S6K1 (compound at 100 nM) was found to be 8.88%; against PYK2 (compound at 100 nM) it was 3.81%; against IKK-BETA (compound at 100 nM), 1.92%; on MAPKAPK-2 (compound at 100 nM), 0.12%. Also, the inhibition at 1 µM was 38.4% against P70S6K1 (compound at 1 μM), 20.2% against PYK2, 2.91% at IKK-BETA and 0.575% against MAPKAPK-2.
`COc1ccc(-c2ccoc2)cc1Nc1ncnc2[nH]cc(-c3cc[nH]n3)c12` [compound 3, N-(5-(furan-3-yl)-2-methoxyphenyl)-5-(1H-pyrazol-3-yl)-7H-pyrrolo[2,3-d]pyrimidin-4-amine]: the GI50 in test [1] turned out to be 7.7 ± 1 nM. Besides, the inhibition at 1 µM at PYK2 is 41%; against IKK-BETA, 8%; against MAPKAPK-2 it was -6%; at MEK2, 70%; against TYK2, 51%; on PI3K-ALPHA it was 6%. The inhibition at 1 µM at FAK was -10%.
